Data from patent publication US11857644B2, “Multi-signal fluorescent probe for early diagnosis of tumors, and preparation and use thereof” (Hunan Cancer Hospital, priority 2022, dated 2024).

Assays:
[1] = Fluorescence detection of ONOO^− by the probe (limit of detection); conditions: organic phase:aqueous phase (PBS) 5:5, room temperature, 15 min
Description: (§1) The multi-signal fluorescent probe was dissolved with dimethyl sulfoxide (DMSO) to obtain a 1 mM probe solution. A 1 mM ONOO^− aqueous solution and a 1 mM Na2S2 aqueous solution were prepared.
(§2) 20 μL of the 1 mM probe solution, 980 μL of analytically pure CH3CN, the required amount of the 1 mM ONOO^− or Na2S2 aqueous solution and the required amount of phosphate buffered saline (PBS) were added into a 2 mL sample tube. A volume ratio of an organic phase to an aqueous phase was kept at 5:5 for all tests (a total volume of each test sample was 2 mL).
For example, when it was required to explore the fluorescence intensity of the multi-signal fluorescent probe after reacted with […] ONOO^−, the experiment was formulated as follows.
L of the 1 mM probe solution, 980 μL of analytically pure CH3CN, 20 μL of the 1 mM ONOO^− aqueous solution and 980 μL of PBS were added into a 2 mL sample tube. The reaction mixture was mixed evenly under shaking at room temperature for 15 min. Then, the fluorescence emission intensity of the reaction mixture could be measured under the 350 nm excitation wavelength. Other steps were performed as above. The limit of detection (LOD) for ONOO^− was 42.12 nM, and the LOD for Na2S2 was 38.45 nM. Fluorescence spectra of the multi-signal fluorescent probe in the detection of peroxynitrite and sodium disulfide were shown in FIG. 2. […]

[2] = Fluorescence detection of Na2S2 by the probe (limit of detection); conditions: organic phase:aqueous phase (PBS) 5:5, room temperature
Description: as §1, §2
L of the 1 mM probe solution, 980 μL of analytically pure CH3CN, 20 μL of the 1 mM ONOO^− aqueous solution and 980 μL of PBS were added into a 2 mL sample tube. […] Then, the fluorescence emission intensity of the reaction mixture could be measured under the 350 nm excitation wavelength. […] Fluorescence spectra of the multi-signal fluorescent probe in the detection of peroxynitrite and sodium disulfide were shown in FIG. 2. […]
The multi-signal fluorescent probe for reactive oxygen was dissolved in a solution, in which a volume ratio of DMSO to the aqueous phase was 5:5. […] Accordingly, a specific analyte can be detected by the specific excitation and fluorescence emission signal. The ONOO^− and Na2S2 can be distinguished by using different excitation wavelengths and fluorescence emission signals. […]

[3] = Fluorescence response selectivity against other species; conditions: OH, t-BuO, 1O2, NO, GSH, Cys, Hcy, SO2, NAC, H2S, halides, amino acids, NaHS, NaHSO3, EtSH, PhSH, n-Butylamine, aniline
Description: Regarding a method for detecting ONOO^− and Na2S2 in cells, unless otherwise specified, a probe molecule is dissolved at room temperature for analytical detection, where a volume ratio of an organic phase to an aqueous phase is 5:5. The organic phase is acetonitrile (CH3CN), and the aqueous phase is formed by PBS (pH=7.4) and an aqueous solution of the analyte.
The multi-signal fluorescent probe for reactive oxygen was dissolved in a solution, in which a volume ratio of […] to the aqueous phase was 5:5. The multi-signal fluorescent probe emitted 492 nm green light under 380 nm excitation wavelength after reacted with ONOO^−, and emitted 548 nm yellow light under 410 nm excitation wavelength after reacted with Na2S2. Accordingly, a specific analyte can be detected by the specific excitation and fluorescence emission signal. The ONOO^− and Na2S2 can be distinguished by using different excitation wavelengths and fluorescence emission signals. […] The LOD for ONOO^− is 42.12 nM, and the LOD for Na2S2 is 38.45 nM. In summary, the multi-signal fluorescent probe can realize the high-sensitivity discrimination and detection of ONOO^− and Na2S2.

With `CCN1c2ccccc2Sc2cc3c(Cl)cc(=O)oc3cc21` [multi-signal fluorescent probe, 4-chloro-11-ethylpyrano[2,3-b]phenothiazin-2(11H)-one] the “limit of detection (LOD) for ONOO^−” value [1] was 42.12 nM, the “LOD for Na2S2” value [2] was 38.45 nM and the “fluorescence response to interfering species” value [3] was “no significant response”.
